Reference: US11065335B2, “Methods of treating leukemia using compositions containing bis(benzylthio)octanoic acid and ion pairs thereof” (Rafael Pharmaceuticals, Inc., priority 2007, dated 2021)
Where a name gives a salt, the structure may show the parent alone.

Experiments:
[1] = test system: A2780 human ovarian cancer cells; assay: CellTiter Glo cell viability assay, A2780 cells
Method: (§1) Two types of human tumor cells were used in this investigation: BXPC3 human pancreatic cancer cells and A2780 human ovarian cancer cells. The BXPC3 cells were originally obtained from American Type Cell Culture (ATCC). The ovarian tumor cells were gifts from Roswell Park Cancer Institute, Buffalo, N.Y. All tumor cells were maintained at 37° C. in a humidified 5% CO2 atmosphere in T75 tissue culture flasks containing 20 mL of Roswell Park Memorial Institute (RPMI) 1640 containing 2 mM L-glutamine, 10% fetal bovine serum (FBS) and 1% penicillin and streptomycin (100 IU/mL penicillin and 100 μg/mL streptomycin). The tumor cells were split at a ratio of 1:5 every 4-5 days by trypsinization and resuspended in fresh medium in a new flask. Cells were harvested for experiments at 70-90% confluency.
(§2) CPI-613 (i.e., 6,8-bis(benzylthio)octanoic acid) stock solutions at concentrations of 8, 4, 2, 1.5 and 0.5 mM were prepared in the appropriate vehicles. The molar ratio of vehicle to CPI-613 was maintained at 8:1. The corresponding vehicle concentrations were 64, 32, 16, 12, and 4 mM respectively. A sixty-four mM aliquot of vehicle was dissolved in 10 mL of water. Next, 8 mM of CPI-613 was added and the mixture was stirred until a clear solution was obtained. […] A 5 μL aliquot of this stock solution was added to 95 μL of tumor cells in media. Upon dilution in the wells, the corresponding drug concentrations were 400, 200, 100, 75 and 25 μM respectively.
(§3) For the sodium salt and potassium salt form of CPI-613, 1 equivalent of CPI-613 solid was dissolved in water. Sixty-two mg of CPI-613 (0.00016 mol) was added to 10 mL of water, then 165 μL of 1M NaOH or KOH was added and stirred until a clear solution was obtained. This gave a 16 mM solution. The resulting 16 mM solution was then serially diluted, thereby providing 8 mM and 4 mM solutions of the CPI-613 salt form. For the ammonium salt, vehicle to drug ratio was maintained at 8:1 and the formulation was prepared using procedures analogous to those described above in Section 2 relating to preparation of CPI-613 formulations in different vehicles.
(§4) CPI-613 formulated in 1M triethanolamine (TEA) was used as an internal control during formulation screening. To prepare a 16 mM of working stock of CPI-613, 50 mg/mL of CPI-613 (128.66 mM of CPI-613 in 1M TEA) was diluted in complete cell culture media containing 10% FBS. That is, 310 μL of a 128.66 mM solution of CPI-613 in 1M TEA was added to 2.19 mL of cell culture media. This stock was further diluted serially in complete media to give 8 mM, 4 mM 2 mM, 1.5 mM and 0.5 mM working solutions. On the day of testing, 5 μL of this working solution was added to 95 μL of cell culture media (20 fold dilution) resulting final concentrations of 400, 200, 100, 75 and 25 μM CPI-613, respectively. The ratio of CPI-613 to TEA was maintained at 1:8 ratio at all times.
(§5) The cell viability of CPI-613 formulations formulated at a ratio of 1:8, CPI-613 to vehicle, was assessed by exposing the A2780 ovarian tumor cells and BXPC3 human pancreatic cancer cells to the following CPI-613 concentrations: 400 μM (3200 μM vehicle), 200 μM (1600 μM vehicle), 100 μM (800 μM vehicle), 75 μM (600 μM vehicle) and 25 μM (200 μM vehicle) The impact of corresponding vehicles at 3200, 1600 and 800 μM concentrations was also tested in tumor cells for cell viability. […] CPI-613 in TEA was used as an internal control. The tumor cells were treated for 24 hrs with the test article in serum-containing medium. After 24 hrs of treatment the number of viable tumor cells was determined.
(§6) The number of cells targeted for the study was 4×10^3 per well in 100 μL of medium. The actual number of cells were counted and seeded in the wells of a 96 well-plate. The cells were incubated for ˜24 hrs before addition of CPI-613.
(§7) For each cell line the concentrations of test articles or vehicles specified above was used.

[2] = test system: BXPC3 human pancreatic cancer cells; assay: CellTiter Glo cell viability assay, BXPC3 cells
Method: as §1, §2, §3, §4, §5, §6, §7

[3] = test system: BXPC3 human pancreatic cancer cells; assay: PI/Annexin Alexa Fluor 488 staining, FACS, type of cell death; assay type: cell-based; settings: 300 μM of CPI-613; 24 hours
From the text: Apoptotic cells will stain Annexin V positive but PI negative because the PI cannot cross the intact cell membrane. Necrotic cells will stain positive for both Annexin V and PI because the cell membrane is not intact.
BxPC3 human pancreatic cancer cells were used in this investigation. These tumor cells were originally obtained from American Type Cell Culture (ATCC, Manassas, Va.). […] Cells were split at a ratio of 1:10 every 2-3 days by trypsinization and resuspended in fresh medium in a new flask. Cells were harvested for experiments in the same way at 70-90% confluency.
2) A 1 mL aliquot of each test condition was added to corresponding well. Each treatment condition was run in duplicate. Cells were incubated for 24 hours with test conditions prior to PI/Annexin Staining.
3) After 24 hours, cells, including floating cells, with media were harvested and centrifuged at 1,400 RPM for 5 minutes.
4) For all samples the supernatant was aspired off, and the pellet was resuspended in 3 mL PBS and then centrifuged again at 1,400 RPM for 5 minutes, for a total of 2 washes.
Cells were incubated with PI/Annexin V for 8 minutes.
6) The reaction was stopped by adding 400 μL 1× Annexin V binding buffer.
7) Samples were then taken to FACS facility to be read on the FACS Scan Flow Cytometer.

[4] = salt formulation at 200 μM, 24 hrs
[5] = salt formulation at 400 μM, 24 hrs

Question: With `O=C(O)CCCCC(CCSCc1ccccc1)SCc1ccccc1` (stereo not drawn) [CPI-613 sodium salt] as the compound, how does the “A2780 Cell Viability (alkali salt formulations)” value ([1]; CPI-613 200 μM, CPI-613 to base 1:1, 24 hrs) read?
Answer: Its value is “++++ (tumor cell viability of >10% up to 30%)”.

Question: What about the viability at 25 µM ([1]; Homo sapiens, A2780, 24 h, read-out: A2780 Cell Viability (alkali salt formulations), CPI-613 25 μM, CPI-613 to base 1:1) of the same compound?
Answer: Its viability at 25 µM is 70 to 95%.

Question: And the viability at 75 µM ([1]; Homo sapiens, A2780, 24 h, read-out: A2780 Cell Viability (alkali salt formulations), CPI-613 75 μM, CPI-613 to base 1:1)?
Answer: The viability at 75 µM was 70 to 95%.

Question: And the viability at 100 µM ([1]; Homo sapiens, A2780, 24 h, read-out: A2780 Cell Viability (alkali salt formulations), CPI-613 100 μM, CPI-613 to base 1:1)?
Answer: Its viability at 100 µM is 70 to 95%.

Question: What about the viability at 400 µM ([1]; Homo sapiens, A2780, 24 h, read-out: A2780 Cell Viability (alkali salt formulations), CPI-613 400 μM, CPI-613 to base 1:1) of the same compound?
Answer: The viability at 400 µM was under 10%.

Question: What about the “cell kill in A2780 cells” value [1, 4] of the same compound?
Answer: Its value is about 65%.

Question: What about the “cell kill in A2780 cells” value [1, 5] of the same compound?
Answer: Its value is “all the cells were killed”.

Question: What about the “BXPC3 Cell Viability (alkali salt formulations)” value ([2]; CPI-613 75 μM, CPI-613 to base 1:1, 24 hrs) of the same compound?
Answer: Its value is “+ (tumor cell viability of >95%)”.

Question: What about the viability at 25 µM ([2]; Homo sapiens, BXPC-3, 24 h, read-out: BXPC3 Cell Viability (alkali salt formulations), CPI-613 25 μM, CPI-613 to base 1:1) of the same compound?
Answer: Its viability at 25 µM is over 95%.

Question: What about the viability at 100 µM ([2]; Homo sapiens, BXPC-3, 24 h, read-out: BXPC3 Cell Viability (alkali salt formulations), CPI-613 100 μM, CPI-613 to base 1:1) of the same compound?
Answer: Its viability at 100 µM is 70 to 95%.

Question: And the viability at 200 µM ([2]; Homo sapiens, BXPC-3, 24 h, read-out: BXPC3 Cell Viability (alkali salt formulations), CPI-613 200 μM, CPI-613 to base 1:1)?
Answer: Its viability at 200 µM is 30 to 70%.

Question: And the viability at 400 µM ([2]; Homo sapiens, BXPC-3, 24 h, read-out: BXPC3 Cell Viability (alkali salt formulations), CPI-613 400 μM, CPI-613 to base 1:1)?
Answer: Its viability at 400 µM is under 10%.

Question: And the “cell kill in BXPC3 cells” value [2, 4]?
Answer: The value was about 50%.

Question: What about the “cell kill in BXPC3 cells” value [2, 5] of the same compound?
Answer: Its value is “all the cells were killed”.

Question: What about the “type of cell death (apoptosis or necrosis)” value [3] of the same compound?
Answer: Its value is “higher number of cells in the state of apoptotic death versus the number of cells in the state of necrotic death”.
